# In patent US20100056508A1, “AMINE DERIVATIVES AND THEIR USE IN BETA-2-ADRENORECEPTOR MEDIATED DISEASES” (ASTRAZENECA AB, priority 2006, published 2010):
# Counter-ions that a name gives are not always drawn.
# Legend:
# Adrenergic β2 = target: T1, Adrenergic β2 (Homo sapiens, UniProt P07550); assay: Adrenergic β2 mediated cAMP production in H292 cells (AlphaScreen cAMP detection); assay type: cell-based; design: key to β2 Int Act: fraction of formoterol maximum activity (formoterol = 1); conditions: for β2 Int Act: Intrinsic Activity as a fraction relative to the maximum activity determined for formoterol; for EC50: cAMP production, 60 minutes at room temperature, 300 μM rolipram, read-out: β2 pEC50 (converted)
# T1 construct: Adherent H292 cells were removed from tissue culture flasks; endogenous in cells; host or cells: H292 cells
# T1 sequence (P07550 whole entry): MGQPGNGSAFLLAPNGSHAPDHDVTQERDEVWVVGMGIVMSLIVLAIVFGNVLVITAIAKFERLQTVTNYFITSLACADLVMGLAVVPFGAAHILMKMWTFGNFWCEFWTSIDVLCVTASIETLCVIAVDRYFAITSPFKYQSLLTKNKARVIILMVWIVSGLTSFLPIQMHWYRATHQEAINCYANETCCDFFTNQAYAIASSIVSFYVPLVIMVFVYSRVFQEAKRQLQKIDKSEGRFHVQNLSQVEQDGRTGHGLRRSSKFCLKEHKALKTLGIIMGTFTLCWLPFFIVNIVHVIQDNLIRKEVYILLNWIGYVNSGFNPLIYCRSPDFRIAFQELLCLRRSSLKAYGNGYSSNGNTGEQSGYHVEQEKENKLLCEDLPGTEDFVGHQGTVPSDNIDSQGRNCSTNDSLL
# Method in brief: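 H292 cells pre-treated 10 min with rolipram (300 μM final), then given agonist for 60 min at room temperature in HBSS/10 mM HEPES pH 7.4, 1.6% DMSO final. Lysate cAMP measured by AlphaScreen against a cAMP standard curve. Four-parameter fit gives pEC50; intrinsic activity relative to formoterol maximum.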
# [1] = target: T2, recombinant human Dopamine Subtype D2s receptors (Homo sapiens, UniProt P14416); assay: Dopamine D2 selectivity assay, [3H]-spiperone binding to membranes; conditions: inhibition of [3H]-spiperone binding, read-out: D2 bind pIC50 (converted)
# T2 construct: purchased Perkin Elmer
# T2 sequence (P14416 1-414 isoform P14416-2): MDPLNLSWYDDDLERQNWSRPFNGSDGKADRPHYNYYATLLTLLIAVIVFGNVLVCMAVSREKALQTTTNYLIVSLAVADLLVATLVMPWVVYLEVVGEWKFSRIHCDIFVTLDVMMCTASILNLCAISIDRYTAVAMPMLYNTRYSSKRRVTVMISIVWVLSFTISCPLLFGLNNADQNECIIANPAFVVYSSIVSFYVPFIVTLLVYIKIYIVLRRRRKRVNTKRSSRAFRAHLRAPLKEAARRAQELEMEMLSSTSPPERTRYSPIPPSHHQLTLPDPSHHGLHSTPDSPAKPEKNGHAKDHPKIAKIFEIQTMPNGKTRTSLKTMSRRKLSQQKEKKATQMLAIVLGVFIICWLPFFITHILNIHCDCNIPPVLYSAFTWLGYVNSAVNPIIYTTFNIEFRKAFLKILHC
# Method in brief: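 Human D2s receptor membranes incubated 2 h at room temperature with 0.16 nM [3H]-spiperone and test compound in HEPES buffer pH 7.4 (120 mM NaCl, 0.1% gelatin). Non-specific binding defined with 10 μM haloperidol; filter-bound radioactivity counted, pIC50 from four-parameter logistic fit.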
β2 Int Act (Adrenergic β2),EC50 (Adrenergic β2),IC50 [1],Structure (SMILES)
0.91,7.94 nM,31.6 nM,"CCCC[C@@H](C)N(CCNCCc1ccc(O)c2c1OCC(=O)N2)C(=O)CCNCCc1cc(C)ccc1F [Example 56, (R)-3-(2-Fluoro-5-methylphenethylamino)-N-(hexan-2-yl)-N-(2-(2-(5-hydroxy-3-oxo-3,4-dihydro-2H-benzo[b][1,4]oxazin-8-yl)ethylamino)ethyl)propanamide bis(trifluoroacetate)]"
0.89,1.26 nM,31.6 nM,"CCCC[C@@H](C)N(CCNCCc1ccc(O)c2c1OCC(=O)N2)C(=O)CCNCCc1cc(F)cc(Cl)c1 [Example 50, (R)-3-(3-Chloro-5-fluorophenethylamino)-N-(hexan-2-yl)-N-(2-(2-(5-hydroxy-3-oxo-3,4-dihydro-2H-benzo[b][1,4]oxazin-8-yl)ethylamino)ethyl)propanamide bis(trifluoroacetate)]"
0.97,2 nM,2000 nM,"O=C1COc2c(CCNCCN(C(=O)CCOCCc3cccc(F)c3)C3CCCCC3)ccc(O)c2N1 [Example 74, N-Cyclohexyl-3-(3-fluorophenethoxy)-N-(2-(2-(5-hydroxy-3-oxo-3,4-dihydro-2H-benzo[b][1,4]oxazin-8-yl)ethylamino)ethyl)propanamide trifluoroacetate]"
0.89,1.58 nM,50.1 nM,"CCCC[C@@H](C)N(CCNCCc1ccc(O)c2c1OCC(=O)N2)C(=O)CCNCCc1ccc(F)c(C)c1 [Example 47, (R)-3-(4-Fluoro-3-methylphenethylamino)-N-(hexan-2-yl)-N-(2-(2-(5-hydroxy-3-oxo-3,4-dihydro-2H-benzo[b][1,4]oxazin-8-yl)ethylamino)ethyl)propanamide bis(trifluoroacetate)]"
0.86,3.98 nM,63.1 nM,"Cc1cc(CCNCCC(=O)N(CCNCCc2ccc(O)c3c2OCC(=O)N3)C2CCCCCC2)ccc1F [Example 62, N-Cycloheptyl-3-(4-fluoro-3-methylphenethylamino)-N-(2-(2-(5-hydroxy-3-oxo-3,4-dihydro-2H-benzo[b][1,4]oxazin-8-yl)ethylamino)ethyl)propanamide bis(trifluoroacetate)]"
0.99,6.31 nM,39.8 nM,"CCCC[C@@H](C)N(CCNCCc1ccc(O)c2c1OCC(=O)N2)C(=O)CCNCCc1cccc(F)c1F [Example 53, (R)-3-(2,3-Difluorophenethylamino)-N-(hexan-2-yl)-N-(2-(2-(5-hydroxy-3-oxo-3,4-dihydro-2H-benzo[b][1,4]oxazin-8-yl)ethylamino)ethyl)propanamide bis(trifluoroacetate)]"
0.92,50.1 nM,> 10000 nM,"CC[C@@H](C)N(CCNCCc1ccc(O)c2[nH]c(=O)ccc12)C(=O)CCOCCc1ccccc1.Cl [Example 79, (R)—N-sec-Butyl-N-(2-(2-(8-hydroxy-2-oxo-1,2-dihydroquinolin-5-yl)ethylamino)ethyl)-3-phenethoxypropanamide hydrochloride]"
0.91,7.94 nM,39.8 nM,"CC[C@@H](C)N(CCNCCc1ccc(O)c2c1OCC(=O)N2)C(=O)CCNCCc1ccc(Cl)c(Cl)c1 [Example 58, (R)—N-sec-Butyl-3-(3,4-dichlorophenethylamino)-N-(2-(2-(5-hydroxy-3-oxo-3,4-dihydro-2H-benzo[b][1,4]oxazin-8-yl)ethylamino)ethyl)propanamide dihydrochloride]"

# The next lines start with the molecule.
Structure (SMILES),β2 Int Act (Adrenergic β2),EC50 (Adrenergic β2),IC50 [1]
"O=C(CCOCCc1ccccc1)N(CCNCCc1ccc(O)c2[nH]c(=O)ccc12)C1CCCCC1 [Example 2, N-Cyclohexyl-N-(2-(2-(8-hydroxy-2-oxo-1,2-dihydroquinolin-5-yl)ethylamino)ethyl)-3-phenethoxypropanamide]",0.93,12.6 nM,> 6310 nM
"O=C1COc2c(CCNCCN(C(=O)CCNCCc3ccc(Cl)c(Cl)c3)C3CCCCC3)ccc(O)c2N1 [Example 30, N-Cyclohexyl-3-(3,4-dichlorophenethylamino)-N-(2-(2-(5-hydroxy-3-oxo-3,4-dihydro-2H-benzo[b][1,4]oxazin-8-yl)ethylamino)ethyl)propanamide bis(trifluoroacetate)]",0.92,3.98 nM,50.1 nM
"CCCC[C@@H](C)N(CCNCCc1ccc(O)c2c1OCC(=O)N2)C(=O)CCNCCc1ccccc1Cl [Example 46, (R)-3-(2-Chlorophenethylamino)-N-(hexan-2-yl)-N-(2-(2-(5-hydroxy-3-oxo-3,4-dihydro-2H-benzo[b][1,4]oxazin-8-yl)ethylamino)ethyl)propanamide bis(trifluoroacetate)]",0.89,1.26 nM,15.8 nM
"O=C(CCNCCc1cccc(Cl)c1)N(CCNCCc1ccc(O)c2[nH]c(=O)ccc12)C1CCCCC1 [Example 13, 3-(3-Chlorophenethylamino)-N-cyclohexyl-N-(2-(2-(8-hydroxy-2-oxo-1,2-dihydroquinolin-5-yl)ethylamino)ethyl)propanamide bis(trifluoroacetate)]",0.86,7.94 nM,50.1 nM
"Cc1cc(CCNCCC(=O)N(CCNCCc2ccc(O)c3c2OCC(=O)N3)C2CCCCC2)ccc1F [Example 40, N-Cyclohexyl-3-(4-fluoro-3-methylphenethylamino)-N-(2-(2-(5-hydroxy-3-oxo-3,4-dihydro-2H-benzo[b][1,4]oxazin-8-yl)ethylamino)ethyl)propanamide bis(trifluoroacetate)]",0.96,251 nM,398 nM
"O=C1COc2c(CCNCCN(C(=O)CCNCCc3cccc(F)c3F)C3CCCCC3)ccc(O)c2N1 [Example 36, N-Cyclohexyl-3-(2,3-difluorophenethylamino)-N-(2-(2-(5-hydroxy-3-oxo-3,4-dihydro-2H-benzo[b][1,4]oxazin-8-yl)ethylamino)ethyl)propanamide bis(trifluoroacetate)]",0.91,1.26 nM,631 nM
"O=C(CCNCCc1ccc(Cl)cc1)N(CCNCCc1ccc(O)c2[nH]c(=O)ccc12)C1CCCCC1 [Example 14, 3-(4-Chlorophenethylamino)-N-cyclohexyl-N-(2-(2-(8-hydroxy-2-oxo-1,2-dihydroquinolin-5-yl)ethylamino)ethyl)propanamide bis(trifluoroacetate)]",0.88,20 nM,251 nM
"O=C1COc2c(CCNCCN(C(=O)CCNCCc3ccc(F)c(Cl)c3)C3CCCCC3)ccc(O)c2N1 [Example 37, 3-(3-Chloro-4-fluorophenethylamino)-N-cyclohexyl-N-(2-(2-(5-hydroxy-3-oxo-3,4-dihydro-2H-benzo[b][1,4]oxazin-8-yl)ethylamino)ethyl)propanamide bis(trifluoroacetate)]",0.89,2 nM,100 nM
"O=C(CCNCCc1cc(F)ccc1F)N(CCNCCc1ccc(O)c2[nH]c(=O)ccc12)C1CCCCC1 [Example 17, N-Cyclohexyl-3-(2,5-difluorophenethylamino)-N-(2-(2-(8-hydroxy-2-oxo-1,2-dihydroquinolin-5-yl)ethylamino)ethyl)propanamide bis(trifluoroacetate)]",0.93,3.98 nM,1260 nM
"O=C1COc2c(CCNCCN(C(=O)CCNCCc3ccc(Cl)cc3)C3CCCCC3)ccc(O)c2N1 [Example 32, 3-(4-Chlorophenethylamino)-N-cyclohexyl-N-(2-(2-(5-hydroxy-3-oxo-3,4-dihydro-2H-benzo[b][1,4]oxazin-8-yl)ethylamino)ethyl)propanamide bis(trifluoroacetate)]",1.03,3.16 nM,200 nM
"O=C1COc2c(CCNCCN(C(=O)CCNCCc3cccc(Cl)c3Cl)C3CCCCC3)ccc(O)c2N1 [Example 29, N-Cyclohexyl-3-(2,3-dichlorophenethylamino)-N-(2-(2-(5-hydroxy-3-oxo-3,4-dihydro-2H-benzo[b][1,4]oxazin-8-yl)ethylamino)ethyl)propanamide bis(trifluoroacetate)]",0.91,5.01 nM,100 nM
"CCCC[C@@H](C)N(CCNCCc1ccc(O)c2c1OCC(=O)N2)C(=O)CCNCCc1ccc(Cl)cc1 [Example 45, (R)-3-(4-Chlorophenethylamino)-N-(hexan-2-yl)-N-(2-(2-(5-hydroxy-3-oxo-3,4-dihydro-2H-benzo[b][1,4]oxazin-8-yl)ethylamino)ethyl)propanamide bis(trifluoroacetate)]",0.89,5.01 nM,79.4 nM
"O=C1COc2c(CCNCCN(C(=O)CCNCCc3cc(F)cc(Cl)c3)C3CCCCC3)ccc(O)c2N1 [Example 41, 3-(3-Chloro-5-fluorophenethylamino)-N-cyclohexyl-N-(2-(2-(5-hydroxy-3-oxo-3,4-dihydro-2H-benzo[b][1,4]oxazin-8-yl)ethylamino)ethyl)propanamide (trifluoroacetate)]",0.95,3.16 nM,200 nM
"O=C1COc2c(CCNCCN(C(=O)CCNCCc3ccccc3)C3CCCCC3)ccc(O)c2N1 [Example 23, N-Cyclohexyl-N-(2-(2-(5-hydroxy-3-oxo-3,4-dihydro-2H-benzo[b][1,4]oxazin-8-yl)ethylamino)ethyl)-3-(phenethylamino)propanamide bis(trifluoroacetate)]",0.79,0.631 nM,316 nM
